Experimental data from US12565467B2, “Compounds, compositions, and methods for the treatment of inflammatory, degenerative, and neurodegenerative diseases” (Board of Supervisors of Louisiana State University and …, priority 2015, dated 2026).
“Also recorded” adds a separate entry of the source.

How the values were obtained:
ARPE-19 cells = experiment: Oxidative stress induced apoptosis / cell death in ARPE-19 cells; type: cell-based, human; settings: stressed ARPE-19 cells treated with 5 μm of 15-LOX-D1 inhibitor PD146176
Protocol: (§1) FIG. 5. (A) Effect of PD146176 on VLC-PUFA-inhibited apoptosis induced by OS in ARPE-19 cells. […] It is evident that 32:6 and 34:6 LCAF were able to induce a substantial amount (55 and 48% respectively) of neuroprotection compared to PD 146176 (22%) when the stressed cells were treated with 5 μm of 15-LOX-D1 inhibitor. It can be concluded that since PD146176 is the inhibitor of 15-lipooxygenase enzyme, it might be protecting the stressed RPE cells by accumulating neuroprotective agents inside the cells. (B) Comparison of cytoprotective capacities of NPD1, C32:6 and C34:6 VLC-PUFA on oxidative stress-induced apoptosis in 15-LOX-1 cells. Shown here is the comparison of neuroprotection in a 15-LOX-1-deficient cell line under oxidative stress with 32:6 and 34:6 VLC-PUFA along with NPD1. 32:6 and 34:6 LCAF were able to induce neuroprotection (45% and 40% respectively), as compared to oxidative stress (90%) under this condition. (C) Concentration dependent cytoprotection by C32:6 and C34:6 VLC-PUFA in oxidative-stress induced ARPE-19 cells. A concentration (50-500 nM) kinetic of cytoprotection induced by LCAF 32:6 and 34:6 in RPE cell culture under OS was shown here. […] We decided to use 250 nM concentrations of 32:6 and 34:6 LCAF in subsequent experiments. (D) Selected images of alive and dead cells from this study (control, OS, treatment with C32:6).
(§2) FIG. 5—(A) Effect of PD146176 on VLC-PUFA inhibited apoptosis induced by OS in ARPE-19 cells. […] It is evident that 32:6 and 34:6 LCAF were able to induce a substantial amount (55 and 48% respectively) of neuroprotection compared to PD 146176 (22%) when the stressed cells were treated with 5 μm of 15-LOX-D1 inhibitor. It can be concluded that since PD146176 is the inhibitor of 15-lipooxygenase enzyme, it might be protecting the stressed RPE cells by accumulating neuroprotective agents inside the cells. (B) Comparison of cytoprotective capacities of NPD1, C32:6 and C34:6 VLC-PUFA on oxidative stress-induced apoptosis in 15-LOX-1 cells. Shown here is the comparison of neuroprotection in a 15-LOX-1-deficient cell line under oxidative stress with 32:6 and 34:6 VLC-PUFA along with NPD1. 32:6 and 34:6 VLC-PUFA were able to induce neuroprotection (45% and 40% respectively), as compared to oxidative stress (90%) under this condition. (C) Concentration dependent cytoprotection by C32:6 and C34:6 VLC-PUFA in oxidative-stress induced ARPE-19 cells. A concentration (50-500 nM) kinetic of cytoprotection induced by VLC-PUFA 32:6 and 34:6 in RPE cell culture under OS was shown here. […] We decided to use 250 nM concentrations of 32:6 and 34:6 VLC-PUFA in subsequent experiments. (D) Selected images of alive and dead cells from this study (control, OS, treatment with C32:6).

ischemic stroke (MCAo) = experiment: Ischemic stroke model, 2 h MCAo, neurological score during 7 days; type: in vivo; settings: rat; for activity relative to DHA and NPD1, neurological score (FIG. 12): one hour after 2 h MCAo, 7 days; for in vivo neuroprotective effect (FIG. 12): ICV after 2 hours of MCAo
Protocol: FIG. 12. […] To test the novel elovanoids the experimental design consisted injecting the compounds into the right cerebral ventricle (5 μg/per rat, ICV), one hour after two hours of an ischemic stroke in rats and following thereafter the neurological behavior (neurological score) during 7 days. The protocol in brief was as follows. The injection was made through a surgically implanted metal canula (Alzet) into the right lateral ventricle. Two days later the right middle cerebral artery (MCA) was occluded for 2 h by means of an intraluminal nylon filament (Belayev et al, Traslational Stroke Research, 2010). Then one hour after the compounds were injected dissolved in sterile cerebrospinal fluid. The occlusion was transient performed as follows. The right common carotid artery was exposed through an incision in the neck and was isolated from surrounding tissues. The distal external carotid artery and pterygopalatine arteries were tied. A 4-cm of 3-0 monofilament nylon suture coated with poly-Lysine was introduced into the internal carotid artery and MCA. The suture position was confirmed by advancing the suture 20-22 mm from the common carotid artery bifurcation. Then, the rats were allowed to awaken from anesthesia and returned to their cages. The degree of stroke injury was assessed by neurological assessment of each rat at 60 min after onset of MCAo. […] After 2 hours of MCA occlusion, the rats were re-anesthetized temperature probes were reinserted and the intraluminal suture was removed. The neck incision was closed with silk sutures, and the animals were allowed free access to food and water. […] The methyl ester ELV2-Me is expected to first be hydrolyzed via the actions of esterases, and it may have a more delayed effect, which may be beneficial for a sustainable long-term treatment.
To test the novel elovanoids the experimental design consisted injecting the compounds into the right cerebral ventricle (5 μg/per rat, ICV), one hour after two hours of an ischemic stroke in rats and following thereafter the neurological behavior (neurological score) during 7 days. The protocol in brief was as follows. The injection was made through a surgically implanted metal canula (Alzet) into the right lateral ventricle. Two days later the right middle cerebral artery (MCA) was occluded for 2 h by means of an intraluminal nylon filament (Belayev et al, Traslational Stroke Research, 2010). Then one hour after the compounds were injected dissolved in sterile cerebrospinal fluid. The occlusion was transient performed as follows. The right common carotid artery was exposed through an incision in the neck and was isolated from surrounding tissues. The distal external carotid artery and pterygopalatine arteries were tied. A 4-cm of 3-0 monofilament nylon suture coated with poly-Lysine was introduced into the internal carotid artery and MCA. The suture position was confirmed by advancing the suture 20-22 mm from the common carotid artery bifurcation. Then, the rats were allowed to awaken from anesthesia and returned to their cages. The degree of stroke injury was assessed by neurological assessment of each rat at 60 min after onset of MCAo. […] After 2 hours of MCA occlusion, the rats were re-anesthetized temperature probes were reinserted and the intraluminal suture was removed. The neck incision was closed with silk sutures, and the animals were allowed free access to food and water. […]

[1] = tested on: neuronal cells in primary cultures; experiment: NMDA-induced toxicity in neuronal cells in primary culture, MTT assay for cell viability; type: cell-based; settings: MK-801 with ELV2; NMDA receptor blocker used as control
From the text: FIG. 11. […] In several neurological and neurodegenerative diseases, such as stroke, epilepsy, status epilepticus, traumatic head injury, etc., as well as ophthalmological diseases, such as glaucoma, an excessive presynaptic release of the excitatory neurotransmitter glutamate takes place. As a consequence, glutamate transporters that function to remove extracellular glutamate from astrocytes and neurons are overwhelmed and the NMDA-type glutamate receptor is over-activated. This receptor is a calcium channel that therefore leads to a flooding of calcium into the postsynaptic cell. The overall phenomena is refer to as excitotoxicity that in turn leads to neuronal damage and cell death. MK801 is a known blocker of this receptor used here as a control.
In several neurological and neurodegenerative diseases, such as stroke, epilepsy, status epilepticus, traumatic head injury, etc., as well as ophthalmological diseases, such as glaucoma, an excessive presynaptic release of the excitatory neurotransmitter glutamate takes place. As a consequence, glutamate transporters that function to remove extracellular glutamate from astrocytes and neurons are overwhelmed and the NMDA-type glutamate receptor is over-activated. This receptor is a calcium channel that therefore leads to a flooding of calcium into the postsynaptic cell. The overall phenomena is refer to as excitotoxicity that in turn leads to neuronal damage and cell death. MK801 is a known blocker of this receptor used here as a control.

[2] = tested on: human retinal pigment epithelial (RPE) cells deficient in 15-LOX-D1; experiment: Oxidative stress (OS) induced apoptosis / cell death in 15-LOX-1-deficient human RPE cells; type: cell-based
From the text: (§3) FIG. 4. (A) Cytoprotective effects of NPD1 like compounds on OS induced apoptosis. The results shown in this figure compare the cytoprotective capacities of long chain polyunsaturated fatty acids (VLC-PUFA), elovanoids ELV1 and ELV2, and neuroprotectin D1 (NPD1) in human retinal pigment epithelial (RPE) cells deficient in 15-LOX-D1 by measuring the protection of cell deaths induced by oxidative stress (OS) by these compounds. […] (B) Elovanoid precursors protect human retinal pigment epithelial cells deficient in 15-LOX-1, unlike DHA, from oxidative stress conditions.
as §1
as §3, with “Evidence of cytoprotection by 32.6 and 34.6 VLC-PUFA in oxidative-stress induced ARPE-19 cells as detailed in (FIG. 4): (A) Cytoprotective” for “FIG. 4. (A) Cytoprotective”, “capacities of very long chain” for “capacities of long chain”
as §2, with “(D) Selected images of alive and dead cells from this study (control, OS, treatment with C32:6).” left out

c1ccc2c(c1)SCc1c-2[nH]c2ccccc12 [PD 146176, reference compound]
neuroprotection (FIG. 5A) (ARPE-19 cells): 22%

CC/C=C\C[C@H](O)\C=C/C=C/C=C/[C@H](O)C/C=C\C/C=C\CCCCCCCCCCCCCCC(=O)O [ELV2-Na, sodium (16Z,19Z,22R,23E,25E,27Z,29S,31Z)-22,29-dihydroxytetratriaconta-16,19,23,25,27,31-hexaenoate]
potency of sodium salt versus methyl ester in stroke model (FIG. 12) (ischemic stroke (MCAo); 5 μg/per rat ICV): greater potency
activity relative to DHA and NPD1, neurological score (FIG. 12) (ischemic stroke (MCAo); 5 μg/per rat ICV): more active than DHA and NPD1; also recorded: greater in vivo potency than DHA or NPD1
in vivo neuroprotective effect (FIG. 12) (ischemic stroke (MCAo)): potent in vivo neuroprotective effects

C[C@]12N[C@H](Cc3ccccc31)c1ccccc12 [MK-801, reference compound]
effect of MK-801 on protection, MTT assay for cell viability (FIG. 11B) [1]: potentiates protection

CC/C=C\C[C@H](O)\C=C/C=C/C=C/[C@H](O)C/C=C\C/C=C\CCC(=O)O [NPD1, 10R,17S-dihydroxy-docosa-4Z,7Z,11E,13E,15Z,19Z-hexaenoic acid, reference compound]
protection of cell deaths induced by oxidative stress (FIG. 4A) ([2]; 15-LOX-1-deficient human RPE cells, compared to OS (90%)): 60%
protection against cell death under oxidative stress conditions (FIG. 4B) ([2]; 15-LOX-D1 cells under oxidative stress): protect against cell death

CC/C=C\C[C@H](O)\C=C/C=C/C=C/[C@H](O)C/C=C\C/C=C\CCCCCCCCCCCCCCC(=O)OC [ELV2-Me, methyl (16Z,19Z,22R,23E,25E,27Z,29S,31Z)-22,29-dihydroxy-tetratriaconta-16,19,23,25,27,31-hexaenoate]
activity relative to DHA and NPD1, neurological score (FIG. 12) (ischemic stroke (MCAo); 5 μg/per rat ICV): more active than DHA and NPD1; also recorded: greater in vivo potency than DHA or NPD1
in vivo neuroprotective effect (FIG. 12) (ischemic stroke (MCAo)): potent in vivo neuroprotective effects
